According to patent US6653337B2, “Therapy of auto-immune disease by a photochemotherapeutical method” (Meiji Seika Kaisha, Ltd., priority 1996, dated 2003):
“And” between values parts separate entries of the source, which are not always exact repeats. Equal entries are not always repeated. “Also recorded” adds a separate entry of the source.

Key:
CD-1 mice (male) = test: Acute toxicity of NPe6 in mice (LD50); assay type: in vivo
MRL/1pr mice [1] = test: Liver (GPT enzyme in blood) and skin safety in MRL/1pr mice after NPe6 photochemotherapy; assay type: in vivo
Protocol: To MRL/1pr mice (eight mice per group) of 18 week-old age which have been affected completely by auto-immune diseases, a solution of mono-L-aspartyl chlorin e6 tetrasodium salt (abbreviation: NPe6) dissolved in a physiological saline solution at a NPe6 concentration of 0.1 mg/ml was intra-venously administered in such an amount to give a dosage of NPe6 of 0.5 mg/kg. After 30 minutes from the administration of NPe6, the mice were irradiated with a laser light at wave-length of 664 nm in such a manner that the skin surface on the abdominal region already shaved off of said mice would receive the laser light over a wide area of about 25 cm^2 per mouse tested at an intensity of 20 Joules/cm^2. Thus, the NPe6 contained in the blood stream within the blood vessel beneath the skin of the abdominal region of the mice was irradiated with the laser light and thereby was excited photochemically. […] After 24 hours from the completion of the therapeutic treatments, which was counted from the final run of irradiation of the laser light applied to the mice of the treated group, and thus at the time when the mice tested became 19 week-old, the judgment was made about the therapeutical effects appeared on the treated mice. […]

MRL/1pr mice [2] = test: Kidney function (urea nitrogen in blood, protein in urine) of MRL/1pr mice after NPe6 photochemotherapy; assay type: in vivo; settings: 19 weeks old, 24 h after 8th laser irradiation, NPe6 0.5 mg/kg i.v. + 664 nm laser, eight times
Description: (§1) MRL/1pr mice, which are known as a model of a spontaneous systemic auto-immune diseases, have such inherent property that they spontaneously develop the systemic auto-immune disease due to 1pr-gene. In this case, the characteristic observations of the resulting auto-immune disease include the formation of lymphoma and splenoma as caused by proliferation of heterolymphoid cells, the production of anti-ds-DNA antibody as the auto-antibody, and (or) the outbreak of lupus nephritis owing to the deposition of immune complexes, whereby an early death of the MRL/1pr mice can naturally be involved. For instance, untreated MRL/1pr mice usually have such nature that their mortality reaches 50% at 25 week-old.
(§2) To MRL/1pr mice (eight mice per group) of 18 week-old age which have been affected completely by auto-immune diseases, a solution of mono-L-aspartyl chlorin e6 tetrasodium salt (abbreviation: NPe6) dissolved in a physiological saline solution at a NPe6 concentration of 0.1 mg/ml was intra-venously administered in such an amount to give a dosage of NPe6 of 0.5 mg/kg. […] After 24 hours from the completion of the therapeutic treatments, which was counted from the final run of irradiation of the laser light applied to the mice of the treated group, and thus at the time when the mice tested became 19 week-old, the judgment was made about the therapeutical effects appeared on the treated mice. […]

anti-ds-DNA antibody = test: Anti-ds-DNA antibody value in blood of MRL/1pr mice after NPe6 photochemotherapy (Anti-DNA kit); assay type: in vivo
Description: as §1, §2

MRL/1pr mice [3] = test: Survival of MRL/1pr mice after NPe6 photochemotherapy; assay type: in vivo; settings: for Survival rate (%) of the mice: treated group, 8 mice
Description: as §1
To MRL/1pr mice (eight mice per group) of 18 week-old age which have been affected completely by auto-immune diseases, a solution of mono-L-aspartyl chlorin e6 tetrasodium salt (abbreviation: NPe6) dissolved in a physiological saline solution at a NPe6 concentration of 0.1 mg/ml was intra-venously administered in such an amount to give a dosage of NPe6 of 0.5 mg/kg. After 30 minutes from the administration of NPe6, the mice were irradiated with a laser light at wave-length of 664 nm in such a manner that the skin surface on the abdominal region already shaved off of said mice would receive the laser light over a wide area of about 25 cm^2 per mouse tested at an intensity of 20 Joules/cm^2. Thus, the NPe6 contained in the blood stream within the blood vessel beneath the skin of the abdominal region of the mice was irradiated with the laser light and thereby was excited photochemically. Such photochemotherapeutic procedure comprising the intravenous administration of NPe6 and the irradiation of the laser light was applied eight times to each of the mice under test for 10 days. After 24 hours from the completion of the therapeutic treatments, which was counted from the final run of irradiation of the laser light applied to the mice of the treated group, and thus at the time when the mice tested became 19 week-old, the judgment was made about the therapeutical effects appeared on the treated mice. Further, the survival effect on the treated mice was also observed over the period of from the start of practicing this therapeutic treatments to the point of the 49 week-old age of the mice.
For the untreated group of MRL/1pr mice (10 mice per group, 18-weeks old), merely a physiological saline solution (containing no NPe6) was administered intravenously in the same amount as that for the treated group of mice, and then the mice were irradiated with a laser light as similar as the treated group of mice.
(3) After the completion of the treatment as effected by the above-mentioned photochemotherapeutic procedure, the mice under the test were bred to be 49-weeks old and the survival rate (%) of the mice was measured once a week.

[4] = in vivo

With C=Cc1c(C)c2cc3nc(c(CC(=O)N[C@@H](CC(=O)[O-])C(=O)[O-])c4[nH]c(cc5nc(cc1[nH]2)C(C)=C5CC)c(C)c4C(=O)[O-])[C@@H](CCC(=O)[O-])[C@@H]3C.[Na+].[Na+].[Na+].[Na+] [NPe6, mono-L-aspartyl chlorin e6 tetrasodium salt] the “acute toxicity, LD50 value” (CD-1 mice (male)) was 164 mg/kg, the “content of GPT enzyme in the blood compared with untreated group” value (MRL/1pr mice [1]; 19 weeks old, 24 h after 8th laser irradiation) was “no difference was found” and the “visual observation of the skin after eight percutaneous laser irradiations” value (MRL/1pr mice [1]; shaved abdominal region, 664 nm laser 20 Joules/cm^2) was “not observed visually that any action of changing the skin was involved”. The “content of protein in urine” value (MRL/1pr mice [2]) was 85.2 ± 5.0 mg/dL, the “content of urea nitrogen in blood” value (MRL/1pr mice [2]) was 22.3 ± 1.4 mg/dL and the “antibody value of anti-ds-DNA antibody in blood” value (anti-ds-DNA antibody; 19 weeks old, 24 h after 8th laser irradiation, NPe6 0.5 mg/kg i.v. + 664 nm laser 20 Joules/cm^2, eight times for 10 days) was 5.7±5.3 IU/ml. The “effect on antibody value of the auto-antibody (anti-ds-DNA) in blood, in words” value (anti-ds-DNA antibody; NPe6 i.v. + laser light at 664 nm, versus untreated group) was “decreasing remarkably the antibody value; also recorded: significantly and remarkably decreased”, the “Survival rate (%) of the mice” value (MRL/1pr mice [3]; age 18 weeks (start of treatment), number in parentheses = surviving mice) was 100 (8) % and the “Survival rate (%) of the mice” value (MRL/1pr mice [3]; age 20 weeks) was 100 (8) %. For the same compound, the “Survival rate (%) of the mice” value (MRL/1pr mice [3]; age 21 weeks) was 100 (8) %, the “Survival rate (%) of the mice” value (MRL/1pr mice [3]; age 23 weeks) was 100 (8) % and the “Survival rate (%) of the mice” value (MRL/1pr mice [3]; age 25 weeks) was 100% and 100 (8) %. For the same compound, the “Survival rate (%) of the mice” value (MRL/1pr mice [3]; age 27 weeks) was 100 (8) %, the “Survival rate (%) of the mice” value (MRL/1pr mice [3]; age 30 weeks) was 100 (8) % and the “Survival rate (%) of the mice” value (MRL/1pr mice [3]; age 33 weeks) was 88 (7) %. The “Survival rate (%) of the mice” value (MRL/1pr mice [3]; age 36 weeks) was 88 (7) %, the “Survival rate (%) of the mice” value (MRL/1pr mice [3]; age 43 weeks) was 75 (6) % and the “Survival rate (%) of the mice” value (MRL/1pr mice [3]; age 46 weeks) was 63 (5) %. For the same compound, the “Survival rate (%) of the mice” value (MRL/1pr mice [3]; age 49 weeks) was 63 (5) %, the “age at which the survival rate of the mice is 50 %” value (MRL/1pr mice [3]; treated group of MRL/1pr mice) was over 49 weeks and the “photo-toxicity test: reactions such as erythema, edema” value [4] was “no reactions such as erythema, edema”.
